Our source for the IC50 values is patent US10131642B1, “Aldosterone synthase inhibitors” (Boehringer Ingelheim International GmbH, priority 2015, dated 2018).

Structures are written as SMILES.

Assay [1] addresses cortisol synthase (CYP11B1) (Macaca fascicularis, UniProt A0A2K5ULY1). Put plainly: Inhibition of cortisol synthesis (cynomolgus adrenal mitochondria, cortisol by mass spectrometry). To be noted: cynomolgus adrenal gland mitochondria, 11-deoxycortisol as substrate, cortisol measured as product; read-out: CYP11B1 Inhibition IC50. The format is biochemical, cynomolgus monkey. Here is the method:
The aldosterone synthase and cortisol synthase inhibition assays employ cynomolgus adrenal gland mitochondria as the source of aldosterone synthase (CYP11B2) and cortisol synthase (CYP11B1). Mitochondria are prepared from frozen cynomolgus monkey adrenal glands according to Method A described in by J. D. McGarry et al. (Biochem. J., 1983, 214, 21-28), with a final resuspension in the AT buffer described in R. Yamaguchi et al. (Cell Death and Differentiation, 2007, 14, 616-624), frozen as aliquots in liquid nitrogen and stored at −80° C. until use. Activity of CYP11B2 and CYP11B1 in these preparations is defined as the amount of enzyme that generates 1 pmol of product in one hour under the conditions described. Dose dependent inhibition is quantified by the inclusion of compound at various concentrations. Maximum activity (100%) is defined by reactions containing NADPH, but without compound. Activities at each concentration are expressed as a percentage of the maximum activity (y-axis) and plotted against concentration of compound (x-axis) and the concentration corresponding to 50% activity (IC50) determined using the XLFit curve-fitting program using a 4-parameter logistic model. Assays are performed as for aldosterone synthase except for the use of 150 units of CYP11B1, 11-deoxycortisol as substrate and cortisol measured as product.

The target of assay [2] is T1, aldosterone synthase (CYP11B2) (Macaca fascicularis, UniProt A0A2K5UPL9).
T1 construct: cynomolgus adrenal gland mitochondria as the source of aldosterone synthase (CYP11B2); from tissue; host or cells: cynomolgus monkey adrenal gland mitochondria
T1 sequence (A0A2K5UPL9 1-503): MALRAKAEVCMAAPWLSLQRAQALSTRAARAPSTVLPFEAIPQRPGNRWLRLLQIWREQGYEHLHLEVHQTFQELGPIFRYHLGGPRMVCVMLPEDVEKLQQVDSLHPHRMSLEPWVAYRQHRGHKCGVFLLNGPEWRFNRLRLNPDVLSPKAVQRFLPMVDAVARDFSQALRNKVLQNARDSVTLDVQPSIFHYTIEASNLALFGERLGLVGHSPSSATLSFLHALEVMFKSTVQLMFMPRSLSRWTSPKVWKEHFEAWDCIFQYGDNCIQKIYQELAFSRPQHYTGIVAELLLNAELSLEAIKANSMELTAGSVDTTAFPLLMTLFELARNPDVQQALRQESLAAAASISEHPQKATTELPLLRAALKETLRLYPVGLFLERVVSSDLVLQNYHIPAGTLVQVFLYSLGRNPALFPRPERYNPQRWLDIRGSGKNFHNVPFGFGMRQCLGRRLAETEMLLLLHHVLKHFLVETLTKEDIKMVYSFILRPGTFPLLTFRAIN
The assay is described as follows: Inhibition of aldosterone synthase (cynomolgus adrenal mitochondria, aldosterone by mass spectrometry). The format is biochemical, cynomolgus monkey. To be noted: cynomolgus adrenal gland mitochondria, 2 μM corticosterone substrate, 90 minutes at 37° C. The protocol: The aldosterone synthase and cortisol synthase inhibition assays employ cynomolgus adrenal gland mitochondria as the source of aldosterone synthase (CYP11B2) and cortisol synthase (CYP11B1). Mitochondria are prepared from frozen cynomolgus monkey adrenal glands according to Method A described in by J. D. McGarry et al. (Biochem. J., 1983, 214, 21-28), with a final resuspension in the AT buffer described in R. Yamaguchi et al. (Cell Death and Differentiation, 2007, 14, 616-624), frozen as aliquots in liquid nitrogen and stored at −80° C. until use. Activity of CYP11B2 and CYP11B1 in these preparations is defined as the amount of enzyme that generates 1 pmol of product in one hour under the conditions described.
Assays are performed in 96-well format in a final volume of 60 µL/well, containing 100 mM potassium phosphate, pH 7.4, 1% (v/v) DMSO, and additionally, 2 μM of corticosterone and 50 units of CYP11B2 activity. Reactions are started by the addition of NADPH to 1 mM and allowed to proceed for 90 minutes at 37° C. Reactions are terminated by the addition of 60 μL of MeCN containing an internal standard for mass spectrometry. One hundred microliters are then transferred to a glass filter plate and centrifuged at 570×g for 5 minutes and the filtrate is collected. Reaction product aldosterone is quantified by mass spectrometry. To determine the assay blank value (0% activity), NADPH is omitted from some reactions.
Dose dependent inhibition is quantified by the inclusion of compound at various concentrations. Maximum activity (100%) is defined by reactions containing NADPH, but without compound. Activities at each concentration are expressed as a percentage of the maximum activity (y-axis) and plotted against concentration of compound (x-axis) and the concentration corresponding to 50% activity (IC50) determined using the XLFit curve-fitting program using a 4-parameter logistic model.

For the molecule `CC1(C)CC(=O)c2c(noc2Cc2ccc(C(=O)N3CC[C@H](S(C)(=O)=O)C3)cc2)C1` [Cpd 53, 3-[4-((S)-3-Methanesulfonyl-pyrrolidine-l-carbonyl)-benzyl]-6,6-dimethyl-6,7-dihydro-5H-benzo[c]isoxazol-4-one], the IC50 amounted to 6700 nM in assay [1] and 42 nM in assay [2].

Take `CC1(C)CC(=O)c2c(noc2Cc2ccc(C(=O)NCCS(N)(=O)=O)cc2)C1` [Cpd 54, 4-(6,6-Dimethyl-4-oxo-4,5,6,7-tetrahydro-benzo[c]isoxazol-3-ylmethyl)-N-(2-sulfamoyl-ethyl)-benzamide]: the IC50 was 2500 nM in assay [1] and 58 nM in assay [2].

Consider `CCN(CCO)C(=O)c1ccc(Cc2onc3c2C(=O)CC(C)(C)C3)cc1` [Cpd 55, 4-(6,6-Dimethyl-4-oxo-4,5,6,7-tetrahydro-benzo[c]isoxazol-3-ylmethyl)-N-ethyl-N-(2-hydroxy-ethyl)-benzamide], for which the results for the IC50 in assay [1] and in assay [2] were 5400 nM and 68 nM, respectively.

On to `COCCN(C)C(=O)c1ccc(Cc2onc3c2C(=O)CC(C)(C)C3)cc1` [Cpd 56, 4-(6,6-Dimethyl-4-oxo-4,5,6,7-tetrahydro-benzo[c]isoxazol-3-ylmethyl)-N-(2-methoxy-ethyl)-N-methyl-benzamide], for which the IC50 in assay [1] came out at 11000 nM; in assay [2], 69 nM.

For the molecule `O=C1CC(Cc2ccccc2)Cc2noc(Cc3ccc(C(=O)N4CC[C@@H](O)C4)cc3)c21` (stereo partly drawn) [Cpd 57, 6-Benzyl-3-[4-((R)-3-hydroxy-pyrrolidine-l-carbonyl)-benzyl]-6,7-dihydro-5H-benzo[c]isoxazol-4-one], the IC50 in assay [1] was determined as 2600 nM; in assay [2], 80 nM.

`COCCNC(=O)c1ccc(Cc2onc3c2C(=O)CC(C)(C)C3)cc1` [Cpd 58, 4-(6,6-Dimethyl-4-oxo-4,5,6,7-tetrahydro-benzo[c]isoxazol-3-ylmethyl)-N-(2-methoxy-ethyl)-benzamide]: the IC50 in assay [1] was determined as 3400 nM; in assay [2] it was 89 nM.

In the case of `CN(CCO)C(=O)c1ccc(Cc2onc3c2C(=O)CC(C)(C)C3)cc1` [Cpd 59, 4-(6,6-Dimethyl-4-oxo-4,5,6,7-tetrahydro-benzo[c]isoxazol-3-ylmethyl)-N-(2-hydroxy-ethyl)-N-methyl-benzamide], the IC50 in assay [1] was found to be 11000 nM; in assay [2], 92 nM.

For `CC1(C)CC(=O)c2c(noc2Cc2ccc(C(=O)N3CCC[C@H](O)C3)cc2)C1` [Cpd 60, 3-[4-((S)-3-Hydroxy-piperidine-1-carbonyl)-benzyl]-6,6-dimethyl-6,7-dihydro-5H-benzo[c]isoxazol-4-one], the IC50 in assay [1] came to 5900 nM; in assay [2], 94 nM.

In the case of `CC1(C)CC(=O)c2c(noc2Cc2ccc(C(=O)NCCS(C)(=O)=O)cc2)C1` [Cpd 61, 4-(6,6-Dimethyl-4-oxo-4,5,6,7-tetrahydro-benzo[c]isoxazol-3-ylmethyl)-N-(2-methanesulfonyl-ethyl)-benzamide], the IC50 is 7400 nM in assay [1] and 91 nM in assay [2].

Turning to `CC1(C)CC(=O)c2c(noc2Cc2ccc(C(=O)N3CCNC(=O)C3)cc2)C1` [Cpd 62, 6,6-Dimethyl-3-[4-(3-oxo-piperazine-1-carbonyl)-benzyl]-6,7-dihydro-5H-benzo[c]isoxazol-4-one], the IC50 is 20000 nM in assay [1] and 98 nM in assay [2].

Regarding `O=C1CC(CC2CC2)Cc2noc(Cc3ccc(C(=O)N4CC[C@@H](O)C4)cc3)c21` (stereo partly drawn) [Cpd 63, 6-Cyclopropylmethyl-3-[4-((R)-3-hydroxy-pyrrolidine-1-carbonyl)-benzyl]-6,7-dihydro-5H-benzo[c]isoxazol-4-one], the figures for the IC50 in assay [1] and in assay [2] were 4100 nM and 110 nM, respectively.

`CN(CCS(C)(=O)=O)C(=O)c1ccc(Cc2onc3c2C(=O)CC(C)(C)C3)cc1` [Cpd 64, 4-(6,6-Dimethyl-4-oxo-4,5,6,7-tetrahydro-benzo[c]isoxazol-3-ylmethyl)-N-(2-methanesulfonyl-ethyl)-N-methyl-benzamide]: the IC50 was found to be 9300 nM in assay [1] and 110 nM in assay [2].

As to `CC1(C)CC(=O)c2c(noc2Cc2ccc(C(=O)N3CC[C@H](O)C3)cc2)C1` [Cpd 65, 3-[4-((S)-3-Hydroxy-pyrrolidine-1-carbonyl)-benzyl]-6,6-dimethyl-6,7-dihydro-5H-benzo[c]isoxazol-4-one], the IC50 in assay [1] was 7600 nM; in assay [2] it was 110 nM.

As to `CC1CC(=O)c2c(noc2Cc2ccc(C(=O)N3CCN(C)C(=O)C3)cc2)C1` (stereo not drawn) [Cpd 66, 6-Methyl-3-[4-(4-methyl-3-oxo-piperazine-l-carbonyl)-benzyl]-6,7-dihydro-5H-benzo[c]isoxazol-4-one], the IC50 came to 5000 nM in assay [1] and 120 nM in assay [2].

`CC(C)N(CCO)C(=O)c1ccc(Cc2onc3c2C(=O)CC(C)(C)C3)cc1` [Cpd 67, 4-(6,6-Dimethyl-4-oxo-4,5,6,7-tetrahydro-benzo[c]isoxazol-3-ylmethyl)-N-(2-hydroxy-ethyl)-N-isopropyl-benzamide]: the 50% inhibitory concentration (IC50) in assay [1] was 7300 nM; in assay [2] it was 120 nM.

As to `CC1(C)CC(=O)c2c(noc2Cc2ccc(C(=O)NCCC#N)cc2)C1` [Cpd 68, N-(2-Cyano-ethyl)-4-(6,6-dimethyl-4-oxo-4,5,6,7-tetrahydro-benzo[c]isoxazol-3-ylmethyl)-benzamide], the results for the IC50 in assay [1] and in assay [2] were 7800 nM and 160 nM, respectively.

For `CC1(C)CC(=O)c2c(noc2Cc2ccc(C(=O)NCC3(O)CC3)cc2)C1` [Cpd 69, 4-(6,6-Dimethyl-4-oxo-4,5,6,7-tetrahydro-benzo[c]isoxazol-3-ylmethyl)-N-(1-hydroxy-cyclopropylmethyl)-benzamide], the half-inhibitory concentration (IC50) was determined as 13000 nM in assay [1] and 160 nM in assay [2].

`CC1(C)CC(=O)c2c(noc2Cc2ccc(C(=O)NCC3(CO)CCCC3)cc2)C1` [Cpd 70, 4-(6,6-Dimethyl-4-oxo-4,5,6,7-tetrahydro-benzo[c]isoxazol-3-ylmethyl)-N-(1-hydroxymethyl-cyclopentylmethyl)-benzamide]: the IC50 in assay [1] stood at 11000 nM; in assay [2], 160 nM.

For `C[C@H](O)CNC(=O)c1ccc(Cc2onc3c2C(=O)CC(C)(C)C3)cc1` [Cpd 71, 4-(6,6-Dimethyl-4-oxo-4,5,6,7-tetrahydro-benzo[c]isoxazol-3-ylmethyl)-N-((S)-2-hydroxy-propyl)-benzamide], the IC50 was 20000 nM in assay [1] and 170 nM in assay [2].

Regarding `CC1(C)CC(=O)c2c(noc2Cc2ccc(C(=O)N3CCC[C@@H](O)C3)cc2)C1` [Cpd 72, 3-[4-((R)-3-Hydroxy-piperidine-1-carbonyl)-benzyl]-6,6-dimethyl-6,7-dihydro-5H-benzo[c]isoxazol-4-one], the results for the IC50 in assay [1] and in assay [2] were 5900 nM and 180 nM, respectively.

With `C[C@@H](O)CNC(=O)c1ccc(Cc2onc3c2C(=O)CC(C)(C)C3)cc1` [Cpd 73, 4-(6,6-Dimethyl-4-oxo-4,5,6,7-tetrahydro-benzo[c]isoxazol-3-ylmethyl)-N-((R)-2-hydroxy-propyl)-benzamide], the IC50 in assay [1] came to 23000 nM; in assay [2], 230 nM.
